# Assay results: ChEMBL document CHEMBL5244235, “Diarylpentanoids with antitumor activity: A critical review of structure-activity relationship studies” (Eur J Med Chem, 2020)
# Where “and” joins values, the source holds several entries; their conditions need not be identical. Equal entries are not always repeated.
# What was measured:
# HeLa [1] = test: Antiproliferative activity against human HeLa cells assessed as cell growth inhibition measured after 24 hrs by MTT assay; format: functional, cell-based
# HepG2 = test: Antiproliferative activity against human HepG2 cells assessed as cell growth inhibition measured after 24 hrs by MTT assay; format: functional, cell-based; conditions: HepG2, 24 h
# K562 = test: Antiproliferative activity against human K562 cells assessed as cell growth inhibition measured after 24 hrs by MTT assay; format: functional, cell-based; conditions: K562, 24 h
# THP-1 = test: Antiproliferative activity against human THP-1 cells assessed as cell growth inhibition measured after 24 hrs by MTT assay; format: functional, cell-based; conditions: THP-1, 24 h
# MDA-MB-231 [2] = test: Growth inhibition of human MDA-MB-231 cells measured after 72 hrs by microplate reader analysis; format: functional
# [3] = Antiproliferative activity against human MRC9 cells assessed as cell growth inhibition measured after 72 hrs by MTT assay; format: functional, cell-based; conditions: MRC9, 72 h
# [4] = Cytotoxicity against mouse MS-1 cells assessed as cell growth inhibition by anti-angiogenisis screening assay; format: toxicity, cell-based
# [5] = Cytotoxicity against HUVEC cells assessed as cell growth inhibition by anti-angiogenisis screening assay; format: toxicity, cell-based; conditions: human
# Ca-Ski = test: Antiproliferative activity against human Ca-Ski cells assessed as cell growth inhibition measured after 72 hrs by MTT assay; format: functional, cell-based
# RPMI-7951 = test: Growth inhibition of human RPMI-7951 cells measured after 72 hrs by microplate reader analysis; format: functional, cell-based; conditions: RPMI-7951, time 72 hrs
# [6] = Cytotoxicity against mouse SVR cells assessed as cell growth inhibition by anti-angiogenisis screening assay; format: toxicity, cell-based
# HeLa [7] = test: Antiproliferative activity against human HeLa cells assessed as cell growth inhibition measured after 72 hrs by MTT assay; format: functional, cell-based
# MCF7 = test: Antiproliferative activity against human MCF7 cells assessed as cell growth inhibition measured after 72 hrs; format: functional, cell-based; conditions: MCF7, 72 h
# Huh-7 = test: Antiproliferative activity against human Huh-7 cells assessed as cell growth inhibition measured after 72 hrs; format: functional, cell-based; conditions: Huh-7, 72 h
# HCT-116 [8] = test: Antiproliferative activity against human HCT-116 cells assessed as cell growth inhibition measured after 72 hrs; format: functional, cell-based; conditions: HCT-116, 72 h
# PC-3 = test: Antiproliferative activity against human PC-3 cells assessed as cell growth inhibition measured after 72 hrs; format: functional, cell-based; conditions: PC-3, 72 h
# [9] = Antiproliferative activity against human OVK18 cells assessed as cell growth inhibition measured after 72 hrs; format: functional, cell-based; conditions: OVK18, 72 h
# HUVEC = test: Anti-angiogenesis activity in HUVEC cells; format: functional, cell-based; conditions: Homo sapiens
# 8505C = test: Antiproliferative activity against human 8505C cells assessed as cell growth inhibition measured after 72 hrs; format: functional, cell-based
# GCIY = test: Antiproliferative activity against human GCIY cells assessed as cell growth inhibition measured after 72 hrs; format: functional, cell-based
# [10] = Antiproliferative activity against human PK-1 cells assessed as cell growth inhibition measured after 72 hrs; format: functional, cell-based; conditions: PK-1, 72 h
# [11] = Antiproliferative activity against human SH-10-TC cells assessed as cell growth inhibition measured after 72 hrs; format: functional, cell-based
# A-431 = test: Antiproliferative activity against human A-431 cells assessed as cell growth inhibition measured after 72 hrs; format: functional, cell-based; conditions: A-431, 72 h
# HuCCT-1 = test: Antiproliferative activity against human HuCCT-1 cells assessed as cell growth inhibition measured after 72 hrs; format: functional, cell-based; conditions: HuCCT-1, 72 h
# DLD-1 = test: Antiproliferative activity against human DLD-1 cells assessed as cell growth inhibition measured after 72 hrs; format: functional, cell-based; conditions: DLD-1, 72 h
# ACHN = test: Antiproliferative activity against human ACHN cells assessed as cell growth inhibition measured after 72 hrs; format: functional, cell-based
# A549 [12] = test: Antiproliferative activity against human A549 cells assessed as cell growth inhibition measured after 72 hrs; format: functional, cell-based; conditions: A549, 72 h
# G-361 = test: Antiproliferative activity against human G-361 cells assessed as cell growth inhibition measured after 72 hrs; format: functional, cell-based; conditions: G-361, 72 h
# B16 = test: Antiproliferative activity against mouse B16 cells assessed as cell growth inhibition; format: functional, cell-based
# [13] = Cytotoxicity activity against mouse SVR cells assessed as cell growth inhibition at 6 ug/ml relative to control; format: toxicity, cell-based; conditions: at 6 µg/mL
# [14] = Cytotoxicity activity against mouse SVR cells assessed as cell growth inhibition at 4 ug/ml relative to control; format: toxicity, cell-based; conditions: at 4 µg/mL
# MG-63 = test: Antiproliferative activity against human MG-63 cells assessed as cell viability by WST-1 assay; format: functional, cell-based
# MDA-MB-231 [15] = test: Antiproliferative activity against human MDA-MB-231 cells assessed as cell viability by WST-1 assay; format: functional, cell-based
# A549 [16] = test: Antiproliferative activity against human A549 cells assessed as cell viability by WST-1 assay; format: functional, cell-based
# MDA-MB-468 = test: Antiproliferative activity against human MDA-MB-468 cells assessed as cell viability by WST-1 assay; format: functional, cell-based
# NCI-H23 = test: Antiproliferative activity against human NCI-H23 cells assessed as cell viability by WST-1 assay; format: functional, cell-based
# MV4-11 = test: Antiproliferative activity against human MV4-11 cells assessed as cell viability by WST-1 assay; format: functional, cell-based
# HCT-116 [17] = test: Antiproliferative activity against human HCT116 cells assessed as cell growth inhibition measured after 96 hrs; format: functional, cell-based; conditions: HCT-116, 96 h
compound,measurement,setting,value
O=C1/C(=C/c2cccc(/N=C/c3ccc(O)cc3O)c2)CCC/C1=C\c1cccc(/N=C/c2ccc(O)cc2O)c1,IC50,HeLa [1],< 5000 nM
same,IC50,HepG2,< 5000 nM
same,IC50,K562,< 5000 nM
same,IC50,THP-1,< 5000 nM
O=C(/C=C/c1ccccc1O)/C=C/c1ccccc1O,GI50,MDA-MB-231 [2],1000 nM
same,EC50,[3],4600 nM
same,GI50,[4],1800 nM
same,GI50,[5],1800 nM
same,EC50,Ca-Ski,1030 nM
same,GI50,RPMI-7951,2300 nM
same,GI50,[6],1800 nM
same,EC50,HeLa [7]; hela,1030 nM and 2600 nM
COc1cc(/C=C/C(=O)/C=C/c2cc(OC)c(OC)c(OC)c2)cc(OC)c1O,IC50,MCF7,1000 nM
same,IC50,Huh-7,1000 nM
same,IC50,HCT-116 [8],1000 nM
same,IC50,PC-3,1000 nM
same,IC50,[9],1000 nM
same,IC50,HUVEC,400 nM
same,IC50,8505C,1000 nM
same,IC50,GCIY,1000 nM
same,IC50,[10],1000 nM
same,IC50,[11],1000 nM
same,IC50,A-431,1000 nM
same,IC50,HuCCT-1,1000 nM
same,IC50,DLD-1,1000 nM
same,IC50,ACHN,1000 nM
same,IC50,A549 [12],1000 nM
same,IC50,G-361,1000 nM
COc1cc(/C=C2\CNC/C(=C\c3cc(OC)cc(OC)c3)C2=O)cc(OC)c1,IC50,B16,200 nM
O=C1/C(=C/c2cccc(/N=C/c3ccc(O)c(O)c3O)c2)CCC/C1=C\c1cccc(/N=C/c2ccc(O)c(O)c2O)c1,IC50,HeLa [1],< 5000 nM
same,IC50,HepG2,< 5000 nM
same,IC50,K562,< 5000 nM
same,IC50,THP-1,< 5000 nM
O=C(/C=C/c1ccc(O)cc1)/C=C/c1ccc(O)cc1,GI50,MDA-MB-231 [2],1000 nM
same,GI50,[4],3200 nM
same,GI50,[5],3200 nM
same,GI50,RPMI-7951,2300 nM
same,GI50,[6],3200 nM
O=C(/C=C/c1cccc(F)c1)/C=C/c1cccc(F)c1,EC50,Ca-Ski,1030 nM
same,EC50,"HeLa [7]; Homo sapiens, HeLa, 72 h",1030 nM
O=C(/C=C/c1c(Cl)cccc1Cl)/C=C/c1c(Cl)cccc1Cl,inhibition at 6 ug/ml,[13],90.4%
same,inhibition at 4 ug/ml,[14],87.1%
O=C1/C(=C/c2ccc(Cl)cc2Cl)CNC/C1=C\c1ccc(Cl)cc1Cl,IC50,MG-63,390 nM
same,IC50,MDA-MB-231 [15],390 nM
same,IC50,A549 [16],390 nM
same,IC50,MDA-MB-468,390 nM
same,IC50,NCI-H23,390 nM
same,IC50,MV4-11,390 nM
O=C(/C=C/c1ccccc1)/C=C/c1ccccc1,inhibition at 6 ug/ml,[13],90.4%
same,inhibition at 4 ug/ml,[14],87.1%
O=C1/C(=C/c2cccc(/N=C/c3cccc(O)c3O)c2)CCC/C1=C\c1cccc(/N=C/c2cccc(O)c2O)c1,IC50,HeLa [1],< 5000 nM
same,IC50,HepG2,< 5000 nM
same,IC50,K562,< 5000 nM
same,IC50,THP-1,< 5000 nM
COc1cccc(/C=C2\CNC/C(=C\c3cccc(OC)c3OC)C2=O)c1OC,IC50,MG-63,390 nM
same,IC50,MDA-MB-231 [15],390 nM
same,IC50,A549 [16],390 nM
same,IC50,MDA-MB-468,390 nM
same,IC50,NCI-H23,390 nM
same,IC50,MV4-11,390 nM
O=C1/C(=C/c2cccc(/N=C/c3ccccc3O)c2)CCC/C1=C\c1cccc(/N=C/c2ccccc2O)c1,IC50,HeLa [1],< 5000 nM
same,IC50,HepG2,< 5000 nM
same,IC50,K562,< 5000 nM
same,IC50,THP-1,< 5000 nM
COc1cc(/C=C2\CN(C)C/C(=C\c3cc(OC)c(OC)c(OC)c3)C2=O)cc(OC)c1OC,IC50,MG-63,390 nM
same,IC50,MDA-MB-231 [15],390 nM
same,IC50,A549 [16],390 nM
same,IC50,MDA-MB-468,390 nM
same,IC50,NCI-H23,390 nM
same,IC50,MV4-11,390 nM
O=C1/C(=C/c2ccccc2Br)CNC/C1=C\c1ccccc1Br,IC50,MG-63,390 nM
same,IC50,MDA-MB-231 [15],390 nM
same,IC50,A549 [16],390 nM
same,IC50,MDA-MB-468,390 nM
same,IC50,NCI-H23,390 nM
same,IC50,MV4-11,390 nM
COc1ccc(/C=C2\CCC/C(=C\c3ccc(OC)c(OC)c3)C2=O)cc1OC,IC50,MCF7,10000 nM
same,IC50,Huh-7,10000 nM
same,IC50,HCT-116 [8],10000 nM
same,IC50,PC-3,10000 nM
same,IC50,[9],10000 nM
same,IC50,8505C,10000 nM
same,IC50,GCIY,10000 nM
same,IC50,[10],10000 nM
same,IC50,[11],10000 nM
same,IC50,A-431,10000 nM
same,IC50,HuCCT-1,10000 nM
same,IC50,DLD-1,10000 nM
same,IC50,ACHN,10000 nM
same,IC50,A549 [12],10000 nM
same,IC50,G-361,10000 nM
COCOc1c(OC)cc(/C=C/C(=O)/C=C/c2cc(OC)c(OCOC)c(OC)c2)cc1OC,IC50,HCT-116 [17],250 nM
